Drawing on PubChem BioAssay AID2060607 (Molecular Pharmacology Branch, DTP, NCI, 2025), this text covers viability, T/C and IC50 for 9 compounds.

By viability, T/C is commonly meant the result in the treated group divided by that in the control group, in per cent. As usually defined, the IC50 is the point on the concentration scale where inhibition reaches its midpoint.

The structures appear in SMILES notation. Several values for one entry are separate records, joined by “and”; a condition that tells them apart may be missing. Equal values may be shown once.

This assay relates to 876862-298-R-J1-PDC complex spheroids, viability % test/control. The assay can be described thus: Anticancer human tumor 876862-298-R-J1-PDC patient-derived endometrial carcinoma cell line growth inhibition [CLK]. Conditions: for viability, T/C: stronger effect = lower value; for IC50: curve of compound. An excerpt:
A high-throughput screen of multi-cell type tumor spheroids was designed to identify active combinations of […] and targeted small molecules. Complex spheroids include a stromal component modeled by human endothelial cells (HUVEC) and fibroblasts modeled by human mesenchymal stem cells (MSCs). The concentration ranges selected for each drug and investigational agent were based upon clinically achievable concentrations if the clinical Cmax of the agent was known.
Compounds. The drugs and investigational agents: cirtuvivint (SM08502; NSC835563), CC-671 (NSC850746), vemurafenib (NSC761431), tapotoclax (NSC804041), sotorasib (NSC818433), adagrasib (NSC831453), MRTX-1133 (NSC836407), BAY2416964 (NSC825713), copanlisib (NSC816437), inavolisib (NSC800729), abemaciclib (NSC768073), osimertinib (NSC779217), entinostat (NSC756642), eltanexor (KPT-8602, NSC794443), venetoclax (NSC766270), ceralasertib (NSC777638), bortezomib (NSC756655), olaparib (NSC753686), talazoparib (NSC767125), alisertib (NSC759677), peposertib (NSC802822), gemcitabine (NSC613327), 5-fluorouracil (NSC19893), SN-38 (NSC673596), oxaliplatin (NSC266046), paclitaxel (NSC125973), and doxorubicin (NSC123127), were obtained from the National Cancer Institute (NCI) Developmental Therapeutics Program Chemical Repository. The FDA-approved anticancer drug set is available from the Developmental Therapeutics Program at https://dtp.cancer.gov/organization/dscb/obtaining/available plates.htm. […] The stock solutions were prepared in dimethyl sulfoxide (DMSO, Sigma-Aldrich, St. Louis, MO, cat. D2650), except for the platinum complexes which were prepared in saline (Quality Biological, Gaithersburg, MD, cat. 114-055-101), at 800-fold the tested concentration and stored at -70 degrees C prior to their use. All drugs and investigational agents were tested over a range starting from a high concentration at or near the clinical Cmax and decreasing in half-log increments. If the clinical Cmax for an agent had not been determined, the highest concentration tested was 10 microM.
Cell Culture. All cells were maintained in an incubator at 37 degrees C and 5% CO2 with 95% humidity. The PDC lines were cultured according to standard operating procedures established by the NCI PDMR. Briefly, all PDCs were thawed and cultured in Matrigel-coated flasks prepared with a working solution of 1X Ham's F-12 nutrient mix, without supplementation (Invitrogen, Waltham, MA, cat. 11765054), 100 U/mL penicillin-streptomycin (Invitrogen, cat. 15140122), and 2.5% Matrigel (Corning Inc., Corning, NY, cat. 354248) for the first three passages. The 947758-054-R-J2-PDC line was cultured in 6B/Colon 1A media, which includes advanced DMEM/F-12 (Thermo Fisher Scientific, cat. 12634028), 10 mM HEPES (Thermo Fisher Scientific, cat. 15630080), 1X GlutaMAX supplement (Thermo Fisher Scientific, cat. 35050061), 0.1 mg/mL primocin (InvivoGen, cat. ant-pm-2), 10% defined fetal bovine serum, heat inactivated (HyClone Laboratories Inc., cat. SH30070.03HI), 1.25 mM N-Acetyl-L-cysteine (Sigma-Aldrich, cat. A9165), 10 mM nicotinamide (Sigma-Aldrich, cat. N0636), 1X B-27 supplement (Thermo Fisher Scientific, cat. 17504044), 1X N-2 supplement (Thermo Fisher Scientific, cat. 17502048), and 10 microM Y-27632 dihydrochloride (Tocris Bioscience, cat. 1254). The 876862-298-R-J1-PDC was cultured in 6E media, which includes all 6B/Colon 1A media components plus 50% L-WRN conditioned media (ATCC, cat. CRL-3276), 50 ng/mL recombinant human EGF recombinant protein (hEGF; Thermo Fisher Scientific, cat. PHG0311), 10 ng/mL recombinant human fibroblast growth factor 10 (hGFG-10; PeproTech, cat. 100-26), 1 ng/mL recombinant human fibroblast growth factor 2 (hFGF-2; PeproTech, cat. 100-18B), and 1 µM prostaglandin E2 (PGE2; Tocris, cat. 2296). The 227483-062-R1-J1-PDC line was cultured in Panc media, containing all 6E components except hFGF-2, with the addition of 500 nM SB-431542 (Selleckchem, cat. S1067) and 10 nM gastrin (Tocris, cat. 3006). […]
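Further: spheroids exposed to drugs for 7 days before readout.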
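Wherever viability, T/C is given: 100% = DMSO vehicle control wells.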

Turning to `CC(=O)O[C@H]1C(=O)[C@@]2(C)[C@H]([C@H](OC(=O)c3ccccc3)[C@]3(O)C[C@H](OC(=O)[C@H](O)[C@@H](NC(=O)c4ccccc4)c4ccccc4)C(C)=C1C3(C)C)[C@]1(OC(C)=O)CO[C@@H]1C[C@@H]2O`, the IC50 is less than 0.0316 µM. Further, the viability, T/C (compound 0.0316 µM) was 25.9% and 26.5%. Further, the viability, T/C (compound 0.1 µM) is 23.7% and 22.9%. Further, the viability, T/C (compound 0.316 µM) was 23% and 20%. Where the note is “compound 1 µM”, the viability, T/C is 25.4% and 25.1%. Besides, the viability, T/C (compound 3.16 µM) is 29.2% and 23.1%. Further, the viability, T/C (compound 10 µM) was 32.2% and 26.1%.
`CC1(C)CCC(CN2CCN(c3ccc(C(=O)NS(=O)(=O)c4ccc(NCC5CCOCC5)c([N+](=O)[O-])c4)c(Oc4cnc5[nH]ccc5c4)c3)CC2)=C(c2ccc(Cl)cc2)C1`: the IC50 was 6.49 µM and 6.29 µM. Where the note is “compound 0.0316 µM”, the viability, T/C is 102% and 88.4%. For the same compound, the viability, T/C (compound 0.1 µM) was 92% and 101%. Also, the viability, T/C (compound 0.316 µM) is 105% and 99.1%. Besides, for the setting “compound 1 µM”, the viability, T/C is 102% and 106%. Moreover, the viability, T/C (compound 3.16 µM) is 111% and 121%. Further, the viability, T/C (compound 10 µM) is 18.4% and 14.2%.
With `CC1COCCN1c1cc(C2(S(C)(=N)=O)CC2)nc(-c2ccnc3[nH]ccc23)n1` (stereo not drawn), the concentration for half-maximal inhibition (IC50) was 3.89 µM and 2.62 µM. The viability, T/C (compound 0.0316 µM) was 110% and 102%. The viability, T/C (compound 0.1 µM) is 99.5% and 104%. Moreover, under “compound 0.316 µM”, the viability, T/C was 89.4% and 94.8%. Besides, the viability, T/C (compound 1 µM) is 77.1% and 79.5%. For the same compound, for the setting “compound 3.16 µM”, the viability, T/C was 55% and 44%. Moreover, where the note is “compound 10 µM”, the viability, T/C is 27% and 18.8%.
On to `COc1ccc([C@@H](O)c2cc(-c3ncnc4cc(N5CCOCC5)ccc34)c(F)cc2Cl)nn1`, for which the IC50 was 9.98 µM and 5.39 µM. Moreover, for the setting “compound 0.0316 µM”, the viability, T/C is 109% and 103%. Moreover, the viability, T/C (compound 0.1 µM) was 88.9% and 106%. The viability, T/C (compound 0.316 µM) is 108% and 101%. Besides, for the setting “compound 1 µM”, the viability, T/C was 98.5% and 89.7%. Besides, the viability, T/C (compound 3.16 µM) was 73.1% and 69%. Also, the viability, T/C (compound 10 µM) was 49.9% and 28.5%.
On to `COc1cccc2c1C(=O)c1c(O)c3c(c(O)c1C2=O)CC(O)(C(=O)CO)CC3OC1CC(N)C(O)C(C)O1` (stereo not drawn), for which the IC50 was less than 0.0316 µM. For the same compound, the viability, T/C (compound 0.0316 µM) is 41.8% and 33.2%. Further, the viability, T/C (compound 0.1 µM) was 16.9% and 13.5%. For the setting “compound 0.316 µM”, the viability, T/C is 7.66% and 6.87%. Besides, the viability, T/C (compound 1 µM) was 7.07% and 7.16%. For the same compound, the viability, T/C (compound 3.16 µM) was 0.89% and 0.78%. The viability, T/C (compound 10 µM) was 4.03% and 4%.
In the case of `Nc1ccccc1NC(=O)c1ccc(CNC(=O)OCc2cccnc2)cc1`, the IC50 is 7.34 µM and 6 µM. For the same compound, the viability, T/C (compound 0.0316 µM) is 99.9% and 95.4%. Besides, under “compound 0.1 µM”, the viability, T/C was 106% and 99.6%. For the same compound, where the note is “compound 0.316 µM”, the viability, T/C was 105%. In addition, the viability, T/C (compound 1 µM) is 91.7% and 106%. In addition, for the setting “compound 3.16 µM”, the viability, T/C was 80.1% and 75.2%. Moreover, the viability, T/C (compound 10 µM) was 39.1% and 29.7%.
Take `Nc1ccn(C2OC(CO)C(O)C2(F)F)c(=O)n1` (stereo not drawn): the IC50 was less than 0.0316 µM. For the same compound, the viability, T/C (compound 0.0316 µM) is 12.8% and 8.55%. Further, the viability, T/C (compound 0.1 µM) is 7.47% and 6.97%. Moreover, for the setting “compound 0.316 µM”, the viability, T/C was 7.3% and 6.5%. The viability, T/C (compound 1 µM) was 6.05% and 6.36%. For the setting “compound 3.16 µM”, the viability, T/C is 6.22% and 8.41%. Also, where the note is “compound 10 µM”, the viability, T/C is 7.04% and 6.47%.
For `O=C(c1cc(Cc2n[nH]c(=O)c3ccccc23)ccc1F)N1CCN(C(=O)C2CC2)CC1`, the IC50 was more than 10 µM. Under “compound 0.0316 µM”, the viability, T/C is 105% and 91.5%. Further, the viability, T/C (compound 0.1 µM) was 107% and 99%. For the same compound, the viability, T/C (compound 0.316 µM) was 109% and 99.4%. In addition, for the setting “compound 1 µM”, the viability, T/C was 109% and 104%. Further, the viability, T/C (compound 3.16 µM) is 108% and 106%. Further, the viability, T/C (compound 10 µM) was 90.4% and 89.1%.
For `O=c1[nH]cc(F)c(=O)[nH]1`, the IC50 was > 10 µM and 6.77 µM. Besides, the viability, T/C (compound 0.0316 µM) was 99.1% and 101%. Further, the viability, T/C (compound 0.1 µM) was 93.2% and 107%. In addition, for the setting “compound 0.316 µM”, the viability, T/C is 100% and 99.6%. The viability, T/C (compound 1 µM) is 104% and 101%. In addition, the viability, T/C (compound 3.16 µM) was 70% and 56.4%. Besides, for the setting “compound 10 µM”, the viability, T/C was 54.1% and 46.7%.
